Experimental data published in patent US12441768B2, “Compositions and methods for treating endometriosis” (EndoMet Biosciences, Inc., priority 2018, dated 2025).
pEC50, pKd: −log10 of the molar value. Where a SMILES comes first, the peptide text is derived from it.

Tests used:
[1] = target: Wnt-responsive promoter (TCF/LEF); assay: Wnt-dependent luciferase reporter assay; assay type: cell-based, murine
Method in brief: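 EC50 (uM) derived from inhibition of luminescence in Wnt3a-stimulated murine 3T3 cells expressing luciferase under a TCF/LEF promoter, with peptides added across a concentration range and vehicle as control.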

[2] = % Viability non-Wnt responsive cells
β-catenin = target: T1, β-catenin (Homo sapiens, UniProt P35222); assay: KD50 measurement using competitive fluorescence polarization (FP) with labelled TCF4; assay type: binding; conditions: fluorescence polarization, β-catenin; for pKd: read-out: β-Cat FP KD
T1 sequence (P35222 1-781): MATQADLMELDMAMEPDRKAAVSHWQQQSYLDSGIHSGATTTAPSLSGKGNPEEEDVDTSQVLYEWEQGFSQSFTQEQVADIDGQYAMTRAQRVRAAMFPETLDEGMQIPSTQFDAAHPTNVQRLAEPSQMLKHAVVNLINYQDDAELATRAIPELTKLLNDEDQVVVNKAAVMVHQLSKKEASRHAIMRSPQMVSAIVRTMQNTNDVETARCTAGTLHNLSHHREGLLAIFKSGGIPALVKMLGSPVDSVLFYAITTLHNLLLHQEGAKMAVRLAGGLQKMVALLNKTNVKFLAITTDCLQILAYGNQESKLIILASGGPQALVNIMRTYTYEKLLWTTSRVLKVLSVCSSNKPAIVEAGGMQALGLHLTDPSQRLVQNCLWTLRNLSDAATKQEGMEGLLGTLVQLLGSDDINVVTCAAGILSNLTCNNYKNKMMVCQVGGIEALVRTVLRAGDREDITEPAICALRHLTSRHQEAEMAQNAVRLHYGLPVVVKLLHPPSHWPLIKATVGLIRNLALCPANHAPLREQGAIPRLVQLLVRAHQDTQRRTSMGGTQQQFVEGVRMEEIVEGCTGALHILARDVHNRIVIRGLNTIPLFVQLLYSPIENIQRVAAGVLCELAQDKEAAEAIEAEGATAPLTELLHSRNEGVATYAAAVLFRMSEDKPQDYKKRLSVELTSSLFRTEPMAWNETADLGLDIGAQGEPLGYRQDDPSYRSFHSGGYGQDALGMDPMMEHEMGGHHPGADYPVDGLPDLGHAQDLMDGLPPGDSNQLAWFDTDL
Method in brief: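 Labelled TCF4 (5 nM) mixed with 100 nM β-catenin at room temperature; inhibitor added as serial dilutions from 10 nM to 30 uM. Polarization read at excitation 470 nm/emission 520 nm; binding displacement lowers polarization. Three independent runs.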

Row | Structure (SMILES) | pEC50 [1] | β-Cat FP Hill slope (β-catenin) | pKd (β-catenin) | viability [2] [%]
1 | CC[C@H](C)[C@H](NC(=O)[C@H](CC(C)C)NC(=O)[C@H](Cc1ccccc1)NC(=O)[C@H](Cc1c[nH]c2ccccc12)NC(C)=O)C(=O)N[C@@H](CS)C(=O)N[C@@H](Cc1ccccc1)C(=O)N[C@@H](Cc1c[nH]c2ccccc12)C(=O)NCC(=O)O [compound 194] (Ac-WFLICFWG-OH) | > 5.12 | 3 | 6.00 to 6.40 | 106
2 | CC[C@H](C)[C@H](NC(=O)[C@H](CC(C)C)NC(=O)[C@@H](NC(=O)[C@H](Cc1c[nH]c2ccccc12)NC(C)=O)[C@@H](C)CC)C(=O)N[C@@H](CO)C(=O)N[C@@H](Cc1ccccc1)C(=O)N[C@@H](Cc1c[nH]c2ccccc12)C(=O)NCC(=O)O [compound 195] (Ac-WILISFWG-OH) | > 5.12 | 3 | > 6.40 | 105
3 | CC[C@H](C)[C@H](NC(=O)[C@H](CC(C)C)NC(=O)[C@H](Cc1ccccc1)NC(=O)[C@H](Cc1c[nH]c2ccccc12)NC(C)=O)C(=O)N[C@@H](C)C(=O)N[C@@H](Cc1ccccc1)C(=O)N[C@@H](Cc1c[nH]c2ccccc12)C(=O)NCC(=O)O [compound 196] (Ac-WFLIAFWG-OH) | > 5.12 | 2.58 | 6.00 to 6.40 | 105
4 | CC[C@H](C)[C@H](NC(=O)[C@H](CC(C)C)NC(=O)[C@H](Cc1ccccc1)NC(=O)[C@H](Cc1c[nH]c2ccccc12)NC(=O)[C@H](CCSC)NC(C)=O)C(=O)N[C@@H](CS)C(=O)N[C@@H](Cc1ccccc1)C(=O)N[C@@H](Cc1c[nH]c2ccccc12)C(=O)NCCCC(=O)O [compound 197] (HELM PEPTIDE1{[ac].M.W.F.L.I.C.F.W.[O=C(O)CCCN[*:1]]}$$$$V2.0) | > 5.12 | 1.52 | 6.00 to 6.40 | 89.8
5 | CC[C@H](C)[C@H](NC(=O)[C@H](CC(C)C)NC(=O)[C@H](Cc1ccccc1)NC(=O)[C@H](Cc1c[nH]c2ccccc12)NC(=O)[C@H](CCSC)NC(C)=O)C(=O)N[C@@H](CS)C(=O)N[C@@H](Cc1ccccc1)C(=O)N[C@@H](Cc1c[nH]c2ccccc12)C(=O)NCC(=O)O [compound 198] (Ac-MWFLICFWG-OH) | > 5.12 | 2.18 | 6.00 to 6.40 | 81.4
6 | CC[C@H](C)[C@@H]1NC(=O)[C@H](CC(C)C)NC(=O)[C@H](C2CCCCC2)NC(=O)[C@H](Cc2c[nH]c3ccccc23)NC(=O)[C@@H](N)CCCCNC(=O)C[C@@H](C(=O)O)NC(=O)[C@H](Cc2c[nH]c3ccccc23)NC(=O)[C@H](C)NC(=O)[C@H](CO)NC1=O [compound 204] (HELM PEPTIDE1{K.W.[O=C([C@@H](N[*:1])C1CCCCC1)[*:2]].L.I.S.A.W.D}$PEPTIDE1,PEPTIDE1,1:R3-9:R3$$$V2.0) | > 5.12 | 0.74 | 6.00 to 6.40 | 108
7 | CC[C@H](C)[C@@H]1NC(=O)[C@H](CC(C)C)NC(=O)[C@H](C(C)(C)C)NC(=O)[C@H](Cc2c[nH]c3ccccc23)NC(=O)[C@@H](N)CCCCNC(=O)C[C@@H](C(=O)O)NC(=O)[C@H](Cc2c[nH]c3ccccc23)NC(=O)[C@H](C)NC(=O)[C@H](CO)NC1=O [compound 205] (HELM PEPTIDE1{K.W.[CC(C)(C)[C@H](N[*:1])C(=O)[*:2]].L.I.S.A.W.D}$PEPTIDE1,PEPTIDE1,1:R3-9:R3$$$V2.0) | < 4.52 |  | < 4.52 | 114

Second part, led by results:

Row | pEC50 [1] | β-Cat FP Hill slope (β-catenin) | pKd (β-catenin) | Structure (SMILES) | viability [2] [%]
8 | > 5.12 | 1.69 | 6.00 to 6.40 | CC[C@H](C)[C@@H]1NC(=O)[C@H](CC(C)C)NC(=O)[C@H](Cc2ccccc2)NC(=O)[C@H](Cc2c[nH]c3ccccc23)NC(=O)[C@H](CCSC)NC(=O)CCCCCNC(=O)C[C@@H](C(=O)O)NC(=O)[C@H](Cc2c[nH]c3ccccc23)NC(=O)[C@H](Cc2ccccc2)NC(=O)[C@H](CS)NC1=O [compound 189] (HELM PEPTIDE1{[O=C(CCCCCN[*:1])[*:2]].M.W.F.L.I.C.F.W.D}$PEPTIDE1,PEPTIDE1,1:R1-10:R3$$$V2.0) | 99.5
9 | 4.82 to 5.12 | 1.3 | 6.00 to 6.40 | CC[C@H](C)[C@@H]1NC(=O)[C@H](CC(C)C)NC(=O)[C@H](Cc2ccccc2)NC(=O)[C@H](Cc2c[nH]c3ccccc23)NC(=O)[C@H](CCSC)NC(=O)CCCNC(=O)C[C@@H](C(=O)O)NC(=O)[C@H](Cc2c[nH]c3ccccc23)NC(=O)[C@H](C)NC(=O)[C@H](CS)NC1=O [compound 191] (HELM PEPTIDE1{[O=C(CCCN[*:1])[*:2]].M.W.F.L.I.C.A.W.D}$PEPTIDE1,PEPTIDE1,1:R1-10:R3$$$V2.0) | 99.1
10 | > 5.12 | 1.33 | > 6.40 | CC[C@H](C)[C@@H]1NC(=O)[C@H](CC(C)C)NC(=O)[C@H](Cc2ccccc2)NC(=O)[C@H](Cc2c[nH]c3ccccc23)NC(=O)[C@H](CCSC)NC(=O)CCCCCNC(=O)C[C@@H](C(=O)O)NC(=O)[C@H](Cc2c[nH]c3ccccc23)NC(=O)[C@H](C)NC(=O)[C@H](CS)NC1=O [compound 192] (HELM PEPTIDE1{[O=C(CCCCCN[*:1])[*:2]].M.W.F.L.I.C.A.W.D}$PEPTIDE1,PEPTIDE1,1:R1-10:R3$$$V2.0) | 103
11 | > 5.12 | 0.7 | 6.00 to 6.40 | CC[C@H](C)[C@@H]1NC(=O)[C@H](CC(C)C)NC(=O)[C@H](Cc2ccccc2)NC(=O)[C@H](Cc2c[nH]c3ccccc23)NC(=O)[C@@H](NC(C)=O)CCCCNC(=O)CC[C@@H](C(=O)O)NC(=O)[C@H](Cc2c[nH]c3ccccc23)NC(=O)[C@H](Cc2ccccc2)NC(=O)[C@H](CO)NC1=O [compound 199] (HELM PEPTIDE1{[ac].K.W.F.L.I.S.F.W.E}$PEPTIDE1,PEPTIDE1,2:R3-10:R3$$$V2.0) | 89.8
12 | > 5.12 | 0.7 | 5.00 to 6.00 | CC[C@H](C)[C@@H]1NC(=O)[C@H](CC(C)C)NC(=O)[C@H](Cc2ccccc2)NC(=O)[C@H](Cc2c[nH]c3ccccc23)NC(=O)[C@@H](NC(C)=O)CCCCNC(=O)CC[C@@H](C(=O)O)NC(=O)[C@H](Cc2c[nH]c3ccccc23)NC(=O)[C@H](Cc2ccccc2)NC(=O)[C@H](C)NC1=O [compound 200] (HELM PEPTIDE1{[ac].K.W.F.L.I.A.F.W.E}$PEPTIDE1,PEPTIDE1,2:R3-10:R3$$$V2.0) | 81.4
13 | 4.52 to 4.65 | 0.7 | 5.00 to 6.00 | CC[C@H](C)[C@@H]1NC(=O)[C@H](CC(C)C)NC(=O)[C@H](Cc2ccccc2)NC(=O)[C@H](Cc2c[nH]c3ccccc23)NC(=O)[C@@H](N)CCCCNC(=O)CC[C@@H](C(=O)O)NC(=O)[C@H](Cc2c[nH]c3ccccc23)NC(=O)[C@H](Cc2ccccc2)NC(=O)[C@H](C)NC1=O [compound 201] (HELM PEPTIDE1{K.W.F.L.I.A.F.W.E}$PEPTIDE1,PEPTIDE1,1:R3-9:R3$$$V2.0) | 60.1
14 | 4.52 to 4.65 |  | < 4.52 | CC[C@H](C)[C@@H]1NC(=O)[C@H](CC(C)C)NC(=O)[C@H](Cc2ccccc2)NC(=O)[C@H](Cc2c[nH]c3ccccc23)NC(=O)[C@@H](N)CCCCNC(=O)C[C@@H](C(=O)O)NC(=O)[C@H](Cc2c[nH]c3ccccc23)NC(=O)[C@H](C)NC(=O)[C@H](CO)NC1=O [compound 202] (HELM PEPTIDE1{K.W.F.L.I.S.A.W.D}$PEPTIDE1,PEPTIDE1,1:R3-9:R3$$$V2.0) | 92.1
15 | 4.82 to 5.12 |  | < 4.52 | CC[C@H](C)[C@@H]1NC(=O)[C@H](CC(C)C)NC(=O)[C@H](CC2CCCCC2)NC(=O)[C@H](Cc2c[nH]c3ccccc23)NC(=O)[C@@H](N)CCCCNC(=O)C[C@@H](C(=O)O)NC(=O)[C@H](Cc2c[nH]c3ccccc23)NC(=O)[C@H](C)NC(=O)[C@H](CO)NC1=O [compound 203] (HELM PEPTIDE1{K.W.[Cha].L.I.S.A.W.D}$PEPTIDE1,PEPTIDE1,1:R3-9:R3$$$V2.0) | 98
16 | 4.65 to 4.82 |  | < 4.52 | CC[C@H](C)[C@@H]1NC(=O)[C@H](CC(C)C)NC(=O)[C@H](CC(C)C)NC(=O)[C@H](Cc2c[nH]c3ccccc23)NC(=O)[C@@H](N)CCCCNC(=O)C[C@@H](C(=O)O)NC(=O)[C@H](Cc2c[nH]c3ccccc23)NC(=O)[C@H](C)NC(=O)[C@H](CO)NC1=O [compound 206] (HELM PEPTIDE1{K.W.L.L.I.S.A.W.D}$PEPTIDE1,PEPTIDE1,1:R3-9:R3$$$V2.0) | 98.7
